Measurements taken from PMC8427973, “Regulation of the HTRA2 Protease Activity by an Inhibitory Antibody-Derived Peptide Ligand and the Influence on HTRA2-Specific Protein Interaction Networks in Retinal Tissues” (Biomedicines, 2021).

System: recombinant 6xHis-tag HTRA2 and its protein interaction partners in homogenized porcine retina
Experiment: Co-immunoprecipitation (Co-IP) of HTRA2 protein interaction partners, quantitative LC-MS/MS (iBAQ, volcano plot vs CTRL beads)
Set-up: species or system house swine (Sus scrofa)
Details: 2 µg HTRA2 + 10 µg compound, n = 3, vs CTRL beads
Description: The retina extraction and homogenization were performed as already described in previous publications. The use of animal by-products of house swine for scientific research purposes was approved by the Kreisverwaltung Mainz-Bingen in Germany (Identification Code: DE 07 315 0006 21, approved on 13 January 2014). In brief, retinal tissues were extracted from freshly removed porcine eye bulbs (house swine, Sus scrofa domestica Linnaeus, n = 30) provided by the local slaughterhouses (Landmetzgerei Harth, Stadecken-Elsheim, Germany). Afterwards, the retinal tissues were homogenized in 2 mL screw cap microtubes filled with 1.4/2.8 mm ceramic beads and 1 mL Tissue Protein Extraction Reagent (T-PER, Thermo Fisher Scientific, Rockford, IL, USA) using a Percellys® 24 homogenizer (VWR International GmbH, Darmstadt, Germany). The homogenized retinal samples were then centrifuged at 14,000× g for 15 min at 4 °C. The protein-containing supernatant was exchanged in a 100 µL phosphate-buffered saline (PBS) using a 3 kDa Amicon® filtration unit (Millipore, Billerica, MA, USA) and, prior to this, was extensively washed in order to completely remove traces of the T-PER buffer. Afterwards, the samples were pooled and the protein concentration was determined using a Pierce Bicinchoninic Acid (BCA) Protein Assay Kit (Thermo Fisher Scientific, Rockford, IL, USA) according to the manufacturer’s protocol, which provided 5 mg aliquots for further analysis.
The recombinant protein HTRA2 with a C-terminal 6xHis-tag motif (Novoprotein Scientific INC., Summit, NJ, USA) and 40 μL HisPurTM Ni-NTA magnetic beads (Thermo Fisher Scientific, Rockford, IL, USA) were spiked into 5 mg homogenized porcine retina. The experiment comprised of four groups: control homogenate (CTRL group), homogenate with 2 μg recombinant HTRA2 (HTRA2 group), homogenate with 2 μg recombinant HTRA2 and 10 μg UCF-101 (UCF-101 group), and homogenate with 2 μg recombinant HTRA2 and 10 μg synthetic CDR peptide (CDR group). The Co-IP of the recombinant HTRA2 and the enrichment of the respective interaction partners was performed with three independent biological replicates for each group (CTRL, HTRA2, UCF-101, and CDR group). After incubation at 4 °C overnight, the 6xHis-tagged protein HTRA2 with the bounded protein interaction partners (co-immunoprecipitation) was isolated with the previously added HisPurTM Ni-NTA magnetic beads (Thermo Fisher Scientific, Rockford, IL, USA) using a magnetic stand. Each bead group was washed twice with 400 μL PBS and the bounded HTRA2 including the protein interaction partners were eluted by pH shift. The protein concentration of each eluate fraction was determined as described above. Afterwards, 50 μg of each eluate fraction was evaporated using a speed vacuum concentrator (SpeedVac) (Eppendorf, Hamburg, Germany) for 45 min at 30 °C and was stored afterwards at −20 °C.
The protein eluate fractions of each group (50 μg; n = 3 biological replicates per group) were separated by 1D SDS PAGE on 10-well NuPAGE® 12% Bis-Tris gels using NuPAGE™ MOPS SDS Running Buffer 20X (Thermo Fisher Scientific, Rockford, IL, USA). The 1D SDS PAGE was performed with the XCell SureLock^TM Mini-Cell Electrophoresis System (Thermo Fisher Scientific, Rockford, IL, USA) under denatured and reduced conditions, as already described in previous publications. The protein separation was performed for 2 h at 4 °C using 150 V, and then the gels were stained with the Novex Colloidal Blue Staining Kit (Thermo Fisher Scientific, Rockford, IL, USA) according to the manufacturer’s protocol. The next day, the gels were destained overnight and scanned using a DGP-9042 scanner (Brother Industries, Nagoya, Japan) at 600 dpi. In-gel trypsin digestion was performed as already described in previous publications. In brief, each protein lane was divided into 17 slices and was subsequently cut into small pieces. […]

With `O=C1C(=Cc2ccc(-c3ccccc3[N+](=O)[O-])o2)C(=O)N(c2ccccc2)C(=S)N1c1ccccc1` [UCF-101, reference compound] as the compound, how does the “FGF2 (Fibroblast growth factor 2) as significant interaction partner of HTRA2” value (HTRA2 alone: -) read?
Its value is “√ (Proteins fulfilled filtering criteria (p < 0.01; log2 fold change > 1.5))”.

What about the “FTH1 (Ferritin heavy chain) as significant interaction partner of HTRA2” value (HTRA2 alone: -) of the same compound?
Its value is “√ (Proteins fulfilled filtering criteria (p < 0.01; log2 fold change > 1.5))”.

And the “GTF2F2 (General transcription factor IIF subunit 2) as significant interaction partner of HTRA2” value (HTRA2 alone: -)?
Its value is “√ (Proteins fulfilled filtering criteria (p < 0.01; log2 fold change > 1.5))”.

And the “NAPG (Gamma-soluble NSF attachment protein) as significant interaction partner of HTRA2” value (HTRA2 alone: -)?
The value was “- (Proteins failed to fulfill the filtering criteria (p > 0.01; log2 fold change < 1.5))”.

What about the “PDZD11 (PDZ domain-containing protein 11) as significant interaction partner of HTRA2” value (HTRA2 alone: -) of the same compound?
The value was “√ (Proteins fulfilled filtering criteria (p < 0.01; log2 fold change > 1.5))”.

What about the “PGRMC1 (Membrane-associated progesterone receptor component 1) as significant interaction partner of HTRA2” value (HTRA2 alone: -) of the same compound?
Its value is “√ (Proteins fulfilled filtering criteria (p < 0.01; log2 fold change > 1.5))”.

And the “PLRG1 (Pleiotropic regulator 1) as significant interaction partner of HTRA2” value (HTRA2 alone: -)?
Its value is “- (Proteins failed to fulfill the filtering criteria (p > 0.01; log2 fold change < 1.5))”.

And the “POLR2E (DNA-directed RNA polymerases I, II, and III subunit RPABC1) as significant interaction partner of HTRA2” value (HTRA2 alone: -)?
Its value is “- (Proteins failed to fulfill the filtering criteria (p > 0.01; log2 fold change < 1.5))”.

And the “PPA1 (Inorganic pyrophosphatase) as significant interaction partner of HTRA2” value (HTRA2 alone: -)?
The value was “√ (Proteins fulfilled filtering criteria (p < 0.01; log2 fold change > 1.5))”.

And the “SFRP1 (Secreted frizzled-related protein 1) as significant interaction partner of HTRA2” value (HTRA2 alone: -)?
The value was “- (Proteins failed to fulfill the filtering criteria (p > 0.01; log2 fold change < 1.5))”.

And the “TUBA1C (Tubulin alpha-1C chain) as significant interaction partner of HTRA2” value (HTRA2 alone: -)?
Its value is “- (Proteins failed to fulfill the filtering criteria (p > 0.01; log2 fold change < 1.5))”.

What about the “UBE2N (Ubiquitin-conjugating enzyme E2 N) as significant interaction partner of HTRA2” value (HTRA2 alone: -) of the same compound?
Its value is “√ (Proteins fulfilled filtering criteria (p < 0.01; log2 fold change > 1.5))”.

What about the “CDC42 (Cell division control protein 42 homolog) as significant interaction partner of HTRA2” value (HTRA2 alone: n.d.) of the same compound?
The value was “√ (Proteins fulfilled filtering criteria (p < 0.01; log2 fold change > 1.5))”.

What about the “COPE (Coatomer subunit epsilon) as significant interaction partner of HTRA2” value (HTRA2 alone: n.d.) of the same compound?
The value was “√ (Proteins fulfilled filtering criteria (p < 0.01; log2 fold change > 1.5))”.

What about the “MRPL2 (39S ribosomal protein L2, mitochondrial) as significant interaction partner of HTRA2” value (HTRA2 alone: n.d.) of the same compound?
Its value is “- (Proteins failed to fulfill the filtering criteria (p > 0.01; log2 fold change < 1.5))”.

What about the “SNX3 (Sorting nexin-3) as significant interaction partner of HTRA2” value (HTRA2 alone: n.d.) of the same compound?
Its value is “√ (Proteins fulfilled filtering criteria (p < 0.01; log2 fold change > 1.5))”.

And the “SOWAHA (Ankyrin repeat domain-containing protein SOWAHA) as significant interaction partner of HTRA2” value (HTRA2 alone: n.d.)?
The value was “- (Proteins failed to fulfill the filtering criteria (p > 0.01; log2 fold change < 1.5))”.

And the “TIMM13 (Mitochondrial import inner membrane translocase subunit Tim13) as significant interaction partner of HTRA2” value (HTRA2 alone: n.d.)?
Its value is “√ (Proteins fulfilled filtering criteria (p < 0.01; log2 fold change > 1.5))”.

What about the “TUBB8 (Tubulin beta-8 chain) as significant interaction partner of HTRA2” value (HTRA2 alone: n.d.) of the same compound?
Its value is “- (Proteins failed to fulfill the filtering criteria (p > 0.01; log2 fold change < 1.5))”.

What about the “ANK2 (Ankyrin-2) as significant interaction partner of HTRA2” value (HTRA2 alone: √) of the same compound?
Its value is “- (Proteins failed to fulfill the filtering criteria (p > 0.01; log2 fold change < 1.5))”.

And the “AP2A1 (AP-2 complex subunit alpha-1) as significant interaction partner of HTRA2” value (HTRA2 alone: √)?
Its value is “- (Proteins failed to fulfill the filtering criteria (p > 0.01; log2 fold change < 1.5))”.

And the “AP3D1 (AP-3 complex subunit delta-1) as significant interaction partner of HTRA2” value (HTRA2 alone: √)?
Its value is “- (Proteins failed to fulfill the filtering criteria (p > 0.01; log2 fold change < 1.5))”.

What about the “AUH (Methylglutaconyl-CoA hydratase, mitochondrial) as significant interaction partner of HTRA2” value (HTRA2 alone: √) of the same compound?
The value was “- (Proteins failed to fulfill the filtering criteria (p > 0.01; log2 fold change < 1.5))”.

What about the “CS (Citrate synthase, mitochondrial) as significant interaction partner of HTRA2” value (HTRA2 alone: √) of the same compound?
The value was “- (Proteins failed to fulfill the filtering criteria (p > 0.01; log2 fold change < 1.5))”.

What about the “CSTB (Cystatin-B) as significant interaction partner of HTRA2” value (HTRA2 alone: √) of the same compound?
The value was “- (Proteins failed to fulfill the filtering criteria (p > 0.01; log2 fold change < 1.5))”.

And the “DNAJA3 (DnaJ homolog subfamily A member 3, mitochondrial) as significant interaction partner of HTRA2” value (HTRA2 alone: √)?
Its value is “- (Proteins failed to fulfill the filtering criteria (p > 0.01; log2 fold change < 1.5))”.

What about the “DTD1 (D-aminoacyl-tRNA deacylase 1) as significant interaction partner of HTRA2” value (HTRA2 alone: √) of the same compound?
The value was “- (Proteins failed to fulfill the filtering criteria (p > 0.01; log2 fold change < 1.5))”.

And the “EIF2S3 (Eukaryotic translation initiation factor 2 subunit 3) as significant interaction partner of HTRA2” value (HTRA2 alone: √)?
The value was “- (Proteins failed to fulfill the filtering criteria (p > 0.01; log2 fold change < 1.5))”.

And the “FAM30A (Putative uncharacterized protein FAM30A) as significant interaction partner of HTRA2” value (HTRA2 alone: √)?
The value was “- (Proteins failed to fulfill the filtering criteria (p > 0.01; log2 fold change < 1.5))”.

And the “FLNA (Filamin-A) as significant interaction partner of HTRA2” value (HTRA2 alone: √)?
Its value is “- (Proteins failed to fulfill the filtering criteria (p > 0.01; log2 fold change < 1.5))”.

And the “GDI1 (Rab GDP dissociation inhibitor alpha) as significant interaction partner of HTRA2” value (HTRA2 alone: √)?
Its value is “- (Proteins failed to fulfill the filtering criteria (p > 0.01; log2 fold change < 1.5))”.

What about the “GLO1 (Lactoylglutathione lyase) as significant interaction partner of HTRA2” value (HTRA2 alone: √) of the same compound?
The value was “- (Proteins failed to fulfill the filtering criteria (p > 0.01; log2 fold change < 1.5))”.

What about the “GNL1 (Guanine nucleotide-binding protein-like 1) as significant interaction partner of HTRA2” value (HTRA2 alone: √) of the same compound?
Its value is “- (Proteins failed to fulfill the filtering criteria (p > 0.01; log2 fold change < 1.5))”.

And the “HAGH (Hydroxyacylglutathione hydrolase, mitochondrial) as significant interaction partner of HTRA2” value (HTRA2 alone: √)?
Its value is “- (Proteins failed to fulfill the filtering criteria (p > 0.01; log2 fold change < 1.5))”.

What about the “HTRA2 (Serine protease HTRA2, mitochondrial; target protein) enriched” value (HTRA2 alone: √) of the same compound?
Its value is “√ (Proteins fulfilled filtering criteria (p < 0.01; log2 fold change > 1.5))”.

And the “HYOU1 (Hypoxia up-regulated protein 1) as significant interaction partner of HTRA2” value (HTRA2 alone: √)?
The value was “- (Proteins failed to fulfill the filtering criteria (p > 0.01; log2 fold change < 1.5))”.

And the “ME2 (NAD-dependent malic enzyme, mitochondrial) as significant interaction partner of HTRA2” value (HTRA2 alone: √)?
The value was “- (Proteins failed to fulfill the filtering criteria (p > 0.01; log2 fold change < 1.5))”.

And the “NCKAP1 (Nck-associated protein 1) as significant interaction partner of HTRA2” value (HTRA2 alone: √)?
The value was “- (Proteins failed to fulfill the filtering criteria (p > 0.01; log2 fold change < 1.5))”.

And the “PACS1 (Phosphofurin acidic cluster sorting protein 1) as significant interaction partner of HTRA2” value (HTRA2 alone: √)?
Its value is “- (Proteins failed to fulfill the filtering criteria (p > 0.01; log2 fold change < 1.5))”.

And the “POTEE (POTE ankyrin domain family member E) as significant interaction partner of HTRA2” value (HTRA2 alone: √)?
The value was “- (Proteins failed to fulfill the filtering criteria (p > 0.01; log2 fold change < 1.5))”.

What about the “PTGES3 (Prostaglandin E synthase 3) as significant interaction partner of HTRA2” value (HTRA2 alone: √) of the same compound?
The value was “√ (Proteins fulfilled filtering criteria (p < 0.01; log2 fold change > 1.5))”.

And the “SHMT2 (Serine hydroxymethyltransferase, mitochondrial) as significant interaction partner of HTRA2” value (HTRA2 alone: √)?
The value was “- (Proteins failed to fulfill the filtering criteria (p > 0.01; log2 fold change < 1.5))”.

What about the “SPTBN1 (Spectrin beta chain, non-erythrocytic 1) as significant interaction partner of HTRA2” value (HTRA2 alone: √) of the same compound?
The value was “- (Proteins failed to fulfill the filtering criteria (p > 0.01; log2 fold change < 1.5))”.

And the “UBE2V1 (Ubiquitin-conjugating enzyme E2 variant 1) as significant interaction partner of HTRA2” value (HTRA2 alone: √)?
Its value is “√ (Proteins fulfilled filtering criteria (p < 0.01; log2 fold change > 1.5))”.
